# Experimental data taken from patent publication US20250101023A1, “HETEROARYL DERIVATIVE AND USES THEREOF” (IUCF-HYU (INDUSTRY-UNIVERSITY COOPERATION FOUNDATION …, priority 2022, published 2025).
# Experiments:
# PKG1b = PKG1b (Homo sapiens (Human), UniProt Q13976); assay: Kinome-wide profiling; format: biochemical; settings: read-out: % Residual Activity (mean)
# KSR2 = KSR2 (Homo sapiens (Human), UniProt Q6VAB6); assay: Kinome-wide profiling; format: biochemical; settings: read-out: % Residual Activity (mean)
# Sequence of KSR2 (Q6VAB6 whole entry): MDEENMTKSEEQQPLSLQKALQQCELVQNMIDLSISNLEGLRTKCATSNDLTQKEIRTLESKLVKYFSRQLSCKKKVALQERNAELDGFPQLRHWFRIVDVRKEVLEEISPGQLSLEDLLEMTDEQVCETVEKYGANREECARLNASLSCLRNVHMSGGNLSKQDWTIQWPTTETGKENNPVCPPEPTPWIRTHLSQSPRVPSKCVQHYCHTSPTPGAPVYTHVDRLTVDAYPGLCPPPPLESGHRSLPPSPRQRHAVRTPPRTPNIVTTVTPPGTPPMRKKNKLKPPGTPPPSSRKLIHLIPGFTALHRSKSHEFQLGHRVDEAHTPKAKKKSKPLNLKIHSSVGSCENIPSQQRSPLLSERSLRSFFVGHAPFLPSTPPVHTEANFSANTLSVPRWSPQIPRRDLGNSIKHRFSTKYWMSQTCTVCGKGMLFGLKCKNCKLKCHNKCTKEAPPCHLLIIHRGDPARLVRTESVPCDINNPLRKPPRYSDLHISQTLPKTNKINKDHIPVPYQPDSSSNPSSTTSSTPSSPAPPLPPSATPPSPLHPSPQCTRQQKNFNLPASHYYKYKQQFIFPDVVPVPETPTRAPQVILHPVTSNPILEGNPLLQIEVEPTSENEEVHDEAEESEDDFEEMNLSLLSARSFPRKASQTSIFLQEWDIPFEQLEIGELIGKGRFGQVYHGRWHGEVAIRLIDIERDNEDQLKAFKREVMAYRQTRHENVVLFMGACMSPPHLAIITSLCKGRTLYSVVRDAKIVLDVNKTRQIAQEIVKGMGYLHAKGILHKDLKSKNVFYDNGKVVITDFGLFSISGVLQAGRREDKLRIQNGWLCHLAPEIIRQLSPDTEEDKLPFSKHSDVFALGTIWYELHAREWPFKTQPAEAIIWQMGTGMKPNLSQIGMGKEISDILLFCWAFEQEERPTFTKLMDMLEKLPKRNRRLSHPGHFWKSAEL
# CDK3/cyclin E = CDK3/cyclin E (Homo sapiens (Human), UniProt Q00526); assay: Kinome-wide profiling; format: biochemical; settings: read-out: % Residual Activity (mean)
# JAK3 = JAK3 (Homo sapiens (Human), UniProt P52333); assay: Kinome-wide profiling; format: biochemical; settings: read-out: % Residual Activity (mean)
# RET = RET (Homo sapiens (Human), UniProt P07949); assay: Kinome-wide profiling; format: biochemical; settings: read-out: % Residual Activity (mean)
# FLT4/VEGFR3 = FLT4/VEGFR3 (Homo sapiens (Human), UniProt P35916); assay: Kinome-wide profiling; format: biochemical; settings: read-out: % Residual Activity (mean)
# TXK = TXK (Homo sapiens (Human), UniProt P42681); assay: Kinome-wide profiling; format: biochemical; settings: read-out: % Residual Activity (mean)
# RSK1 = RSK1 (Homo sapiens (Human), UniProt Q15418); assay: Kinome-wide profiling; format: biochemical; settings: read-out: % Residual Activity (mean)
# CK2a2 = CK2a2 (Homo sapiens (Human), UniProt P19784); assay: Kinome-wide profiling; format: biochemical; settings: read-out: % Residual Activity (mean)
# Sequence of CK2a2 (P19784 whole entry): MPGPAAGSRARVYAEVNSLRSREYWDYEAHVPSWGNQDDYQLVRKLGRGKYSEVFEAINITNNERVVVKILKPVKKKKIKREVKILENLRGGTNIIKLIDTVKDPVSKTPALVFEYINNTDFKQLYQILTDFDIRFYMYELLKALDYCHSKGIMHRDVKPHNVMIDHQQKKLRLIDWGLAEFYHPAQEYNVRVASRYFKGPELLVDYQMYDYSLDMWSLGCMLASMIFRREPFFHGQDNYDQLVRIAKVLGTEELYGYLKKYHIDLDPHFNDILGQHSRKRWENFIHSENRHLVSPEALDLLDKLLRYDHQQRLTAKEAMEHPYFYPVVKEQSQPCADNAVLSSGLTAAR
# CAMK1b = CAMK1b (Homo sapiens (Human), UniProt Q6P2M8); assay: Kinome-wide profiling; format: biochemical; settings: read-out: % Residual Activity (mean)
# Sequence of CAMK1b (Q6P2M8 whole entry): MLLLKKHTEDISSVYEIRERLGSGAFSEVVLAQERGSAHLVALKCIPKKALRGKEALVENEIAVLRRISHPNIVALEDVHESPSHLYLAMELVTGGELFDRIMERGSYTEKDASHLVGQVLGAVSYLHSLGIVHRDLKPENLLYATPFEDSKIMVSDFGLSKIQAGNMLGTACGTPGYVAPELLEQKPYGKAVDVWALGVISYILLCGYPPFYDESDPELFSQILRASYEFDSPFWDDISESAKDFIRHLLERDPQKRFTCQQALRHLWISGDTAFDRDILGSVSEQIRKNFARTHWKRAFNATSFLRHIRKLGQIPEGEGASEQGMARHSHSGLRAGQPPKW
# AXL = AXL (Homo sapiens (Human), UniProt P30530); assay: Kinome-wide profiling; format: biochemical; settings: read-out: % Residual Activity (mean)
# TRKC = TRKC (Homo sapiens (Human), UniProt Q16288); assay: Kinome-wide profiling; format: biochemical; settings: read-out: % Residual Activity (mean)
# CK1epsilon = CK1epsilon (Homo sapiens (Human), UniProt P49674); assay: Kinome-wide profiling; format: biochemical; settings: read-out: % Residual Activity (mean)
# GRK6 = GRK6 (Homo sapiens (Human), UniProt P43250); assay: Kinome-wide profiling; format: biochemical; settings: read-out: % Residual Activity (mean)
# CDK6/cyclin D1 = CDK6/cyclin D1 (Homo sapiens (Human), UniProt Q00534); assay: Kinome-wide profiling; format: biochemical; settings: read-out: % Residual Activity (mean)
# PBK/TOPK = PBK/TOPK (Homo sapiens (Human), UniProt Q96KB5); assay: Kinome-wide profiling; format: biochemical; settings: read-out: % Residual Activity (mean)
# Sequence of PBK/TOPK (Q96KB5 whole entry): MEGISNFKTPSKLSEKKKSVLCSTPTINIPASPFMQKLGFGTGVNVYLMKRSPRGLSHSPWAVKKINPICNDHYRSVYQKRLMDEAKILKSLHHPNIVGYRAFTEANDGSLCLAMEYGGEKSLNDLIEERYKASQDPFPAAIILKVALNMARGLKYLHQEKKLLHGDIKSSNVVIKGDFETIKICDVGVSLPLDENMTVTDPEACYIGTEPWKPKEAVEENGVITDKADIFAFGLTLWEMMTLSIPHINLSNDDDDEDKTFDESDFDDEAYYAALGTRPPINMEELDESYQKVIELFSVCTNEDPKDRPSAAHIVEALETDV
# CLK3 = CLK3 (Homo sapiens (Human), UniProt P49761); assay: Kinome-wide profiling; format: biochemical; settings: read-out: % Residual Activity (mean)
# FMS = FMS (Homo sapiens (Human), UniProt P07333); assay: Kinome-wide profiling; format: biochemical; settings: read-out: % Residual Activity (mean)
# AURORA C = AURORA C (Homo sapiens (Human), UniProt Q9UQB9); assay: Kinome-wide profiling; format: biochemical; settings: read-out: % Residual Activity (mean)
# Sequence of AURORA C (Q9UQB9 whole entry): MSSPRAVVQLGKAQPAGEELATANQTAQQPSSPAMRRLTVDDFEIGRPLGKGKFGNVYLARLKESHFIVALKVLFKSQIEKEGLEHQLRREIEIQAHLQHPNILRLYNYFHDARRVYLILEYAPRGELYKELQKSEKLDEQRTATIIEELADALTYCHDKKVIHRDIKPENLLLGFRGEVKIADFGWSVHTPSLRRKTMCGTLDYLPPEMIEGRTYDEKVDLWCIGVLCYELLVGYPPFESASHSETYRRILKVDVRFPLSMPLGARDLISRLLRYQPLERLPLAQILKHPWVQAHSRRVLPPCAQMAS
# SRPK1 = SRPK1 (Homo sapiens (Human), UniProt Q96SB4); assay: Kinome-wide profiling; format: biochemical; settings: read-out: % Residual Activity (mean)
# PKCzeta = PKCzeta (Homo sapiens (Human), UniProt Q05513); assay: Kinome-wide profiling; format: biochemical; settings: read-out: % Residual Activity (mean)
# IKKa/CHUK = IKKa/CHUK (Homo sapiens (Human), UniProt O15111); assay: Kinome-wide profiling; format: biochemical; settings: read-out: % Residual Activity (mean)
# Sequence of IKKa/CHUK (O15111 whole entry): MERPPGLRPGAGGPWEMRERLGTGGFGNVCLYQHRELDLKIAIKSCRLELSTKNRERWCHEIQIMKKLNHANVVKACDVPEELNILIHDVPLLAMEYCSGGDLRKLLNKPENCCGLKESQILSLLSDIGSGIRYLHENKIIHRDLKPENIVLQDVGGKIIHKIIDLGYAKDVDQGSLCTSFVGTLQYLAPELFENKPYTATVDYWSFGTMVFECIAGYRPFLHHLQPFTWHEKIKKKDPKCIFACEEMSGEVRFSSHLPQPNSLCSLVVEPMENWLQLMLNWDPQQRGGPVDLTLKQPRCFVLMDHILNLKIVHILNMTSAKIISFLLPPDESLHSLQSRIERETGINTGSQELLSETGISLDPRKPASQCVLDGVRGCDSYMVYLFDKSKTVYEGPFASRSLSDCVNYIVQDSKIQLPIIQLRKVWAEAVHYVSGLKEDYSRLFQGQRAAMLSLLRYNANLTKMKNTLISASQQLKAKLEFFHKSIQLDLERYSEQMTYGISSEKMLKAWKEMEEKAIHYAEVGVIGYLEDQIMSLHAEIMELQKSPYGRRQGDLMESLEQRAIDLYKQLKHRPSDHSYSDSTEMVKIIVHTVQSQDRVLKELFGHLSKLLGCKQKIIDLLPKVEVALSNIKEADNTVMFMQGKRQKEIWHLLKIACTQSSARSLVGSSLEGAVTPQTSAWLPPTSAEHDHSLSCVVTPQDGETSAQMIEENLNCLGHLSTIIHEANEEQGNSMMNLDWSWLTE
# MKK7 = MKK7 (Homo sapiens (Human), UniProt O14733); assay: Kinome-wide profiling; format: biochemical; settings: read-out: % Residual Activity (mean)
# PHKg1 = PHKg1 (Homo sapiens (Human), UniProt Q16816); assay: Kinome-wide profiling; format: biochemical; settings: read-out: % Residual Activity (mean)
# Sequence of PHKg1 (Q16816 whole entry): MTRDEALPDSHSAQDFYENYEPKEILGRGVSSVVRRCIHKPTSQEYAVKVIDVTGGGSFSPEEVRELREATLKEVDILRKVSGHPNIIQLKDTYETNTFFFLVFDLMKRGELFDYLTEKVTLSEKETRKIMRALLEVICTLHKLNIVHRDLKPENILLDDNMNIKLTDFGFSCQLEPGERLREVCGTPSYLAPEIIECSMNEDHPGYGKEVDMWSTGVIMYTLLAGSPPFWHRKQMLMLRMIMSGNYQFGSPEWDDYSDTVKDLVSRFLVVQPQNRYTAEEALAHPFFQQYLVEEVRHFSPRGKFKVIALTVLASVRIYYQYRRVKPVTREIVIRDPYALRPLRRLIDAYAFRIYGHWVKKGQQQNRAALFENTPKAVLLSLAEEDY
# STK38L/NDR2 = STK38L/NDR2 (Homo sapiens (Human), UniProt Q9Y2H1); assay: Kinome-wide profiling; format: biochemical; settings: read-out: % Residual Activity (mean)
# MLK1/MAP3K9 = MLK1/MAP3K9 (Homo sapiens (Human), UniProt P80192); assay: Kinome-wide profiling; format: biochemical; settings: read-out: % Residual Activity (mean)
# CDK4/cyclin D1 = CDK4/cyclin D1 (Homo sapiens (Human), UniProt P11802); assay: Kinome-wide profiling; format: biochemical; settings: read-out: % Residual Activity (mean)
# Sequence of CDK4/cyclin D1 (P11802 whole entry): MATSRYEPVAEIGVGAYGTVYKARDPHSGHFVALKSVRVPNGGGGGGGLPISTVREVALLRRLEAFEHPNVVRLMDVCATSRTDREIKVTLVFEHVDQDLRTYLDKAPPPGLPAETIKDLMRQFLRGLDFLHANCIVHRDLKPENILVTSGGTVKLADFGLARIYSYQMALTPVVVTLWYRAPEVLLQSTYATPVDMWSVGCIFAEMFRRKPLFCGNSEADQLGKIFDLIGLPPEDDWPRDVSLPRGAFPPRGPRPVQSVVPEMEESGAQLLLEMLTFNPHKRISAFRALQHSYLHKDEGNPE
# Sequence of CDK4/cyclin D1 (P24385 whole entry partner): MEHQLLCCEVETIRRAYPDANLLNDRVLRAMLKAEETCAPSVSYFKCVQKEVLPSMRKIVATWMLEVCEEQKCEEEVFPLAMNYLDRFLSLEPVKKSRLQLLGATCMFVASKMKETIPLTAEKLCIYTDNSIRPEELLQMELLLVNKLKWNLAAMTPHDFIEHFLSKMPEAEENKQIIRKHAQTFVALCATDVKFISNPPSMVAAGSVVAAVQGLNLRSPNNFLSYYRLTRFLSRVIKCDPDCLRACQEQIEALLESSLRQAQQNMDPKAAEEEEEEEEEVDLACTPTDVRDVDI
# FAK/PTK2 = FAK/PTK2 (Homo sapiens (Human), UniProt Q05397); assay: Kinome-wide profiling; format: biochemical; settings: read-out: % Residual Activity (mean)
# SK-Br3 and HCC1954 cells = assay: Combined treatment with trastuzumab; format: cell-based; settings: 40 nM Example 53 with trastuzumab titration, 72 hours
# Description: The effect of combined administration was investigated in SK-Br3 and HCC1954 cells.
# BRK = BRK (Homo sapiens (Human), UniProt Q13882); assay: Kinome-wide profiling; format: biochemical; settings: read-out: % Residual Activity (mean)
# SBK1 = SBK1 (Homo sapiens (Human), UniProt Q52WX2); assay: Kinome-wide profiling; format: biochemical; settings: read-out: % Residual Activity (mean)
# ZIPK/DAPK3 = ZIPK/DAPK3 (Homo sapiens (Human), UniProt O43293); assay: Kinome-wide profiling; format: biochemical; settings: read-out: % Residual Activity (mean)
# Sequence of ZIPK/DAPK3 (O43293 whole entry): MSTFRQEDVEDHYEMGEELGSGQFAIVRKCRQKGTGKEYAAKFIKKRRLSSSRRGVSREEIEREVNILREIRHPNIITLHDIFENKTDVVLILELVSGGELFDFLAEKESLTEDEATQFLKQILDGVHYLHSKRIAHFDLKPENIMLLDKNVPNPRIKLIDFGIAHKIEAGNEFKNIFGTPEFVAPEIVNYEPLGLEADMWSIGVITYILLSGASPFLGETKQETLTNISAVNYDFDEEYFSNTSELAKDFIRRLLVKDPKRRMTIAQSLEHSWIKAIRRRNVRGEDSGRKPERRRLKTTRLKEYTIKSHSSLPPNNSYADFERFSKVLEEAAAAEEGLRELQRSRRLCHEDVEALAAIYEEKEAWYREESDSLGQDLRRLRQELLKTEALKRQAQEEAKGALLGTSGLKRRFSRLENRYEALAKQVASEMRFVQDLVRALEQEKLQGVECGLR
# LYN B = LYN B (Homo sapiens (Human), UniProt P07948); assay: Kinome-wide profiling; format: biochemical; settings: read-out: % Residual Activity (mean)
# CAMK4 = CAMK4 (Homo sapiens (Human), UniProt Q16566); assay: Kinome-wide profiling; format: biochemical; settings: read-out: % Residual Activity (mean)
# EPHA2 = EPHA2 (Homo sapiens (Human), UniProt P29317); assay: Kinome-wide profiling; format: biochemical; settings: read-out: % Residual Activity (mean)
# DYRK1B = DYRK1B (Homo sapiens (Human), UniProt Q9Y463); assay: Kinome-wide profiling; format: biochemical; settings: read-out: % Residual Activity (mean)
# IGF1R = IGF1R (Homo sapiens (Human), UniProt P08069); assay: Kinome-wide profiling; format: biochemical; settings: read-out: % Residual Activity (mean)
# VRK2 = VRK2 (Homo sapiens (Human), UniProt Q86Y07); assay: Kinome-wide profiling; format: biochemical; settings: read-out: % Residual Activity (mean)
# Sequence of VRK2 (Q86Y07 whole entry): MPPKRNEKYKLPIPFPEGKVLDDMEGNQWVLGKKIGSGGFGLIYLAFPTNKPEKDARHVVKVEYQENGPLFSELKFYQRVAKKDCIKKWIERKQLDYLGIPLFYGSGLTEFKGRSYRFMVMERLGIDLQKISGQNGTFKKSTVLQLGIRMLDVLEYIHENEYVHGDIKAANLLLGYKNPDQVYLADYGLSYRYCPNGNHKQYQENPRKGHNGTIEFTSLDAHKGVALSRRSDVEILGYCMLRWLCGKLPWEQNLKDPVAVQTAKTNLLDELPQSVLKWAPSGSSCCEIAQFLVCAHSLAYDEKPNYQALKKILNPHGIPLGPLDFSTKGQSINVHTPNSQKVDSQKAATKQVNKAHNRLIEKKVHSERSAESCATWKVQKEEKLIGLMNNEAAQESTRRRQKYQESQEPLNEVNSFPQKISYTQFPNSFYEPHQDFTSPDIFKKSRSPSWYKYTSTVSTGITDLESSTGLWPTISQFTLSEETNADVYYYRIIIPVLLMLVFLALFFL
# LKB1 = LKB1 (Homo sapiens (Human), UniProt Q15831); assay: Kinome-wide profiling; format: biochemical; settings: read-out: % Residual Activity (mean)
compound,measurement,setting,value
"CCn1cnc2c(NCc3ccc(-c4ccccn4)nc3)nc(-c3ccc(N)nc3)nc21 [Example 53, N-([2,2′-bipyridin]-5-ylmethyl)-2-(6-aminopyridin-3-yl)-9-ethyl-9H-purin-6-amine]",remaining activity at 10 µM,PKG1b,97.6%
same,remaining activity at 10 µM,KSR2,88.4%
same,remaining activity at 10 µM,CDK3/cyclin E,0.99%
same,remaining activity at 10 µM,JAK3,99.7%
same,remaining activity at 10 µM,RET,79.5%
same,remaining activity at 10 µM,FLT4/VEGFR3,10%
same,remaining activity at 10 µM,TXK,34.9%
same,remaining activity at 10 µM,RSK1,59.1%
same,remaining activity at 10 µM,CK2a2,91.3%
same,remaining activity at 10 µM,CAMK1b,66.8%
same,remaining activity at 10 µM,AXL,44.2%
same,remaining activity at 10 µM,TRKC,54.9%
same,remaining activity at 10 µM,CK1epsilon,29.8%
same,remaining activity at 10 µM,GRK6,80.6%
same,remaining activity at 10 µM,CDK6/cyclin D1,24.2%
same,remaining activity at 10 µM,PBK/TOPK,93.5%
same,remaining activity at 10 µM,CLK3,94.6%
same,remaining activity at 10 µM,FMS,35.4%
same,remaining activity at 10 µM,AURORA C,25.5%
same,remaining activity at 10 µM,SRPK1,54.3%
same,remaining activity at 10 µM,PKCzeta,90.2%
same,remaining activity at 10 µM,IKKa/CHUK,71.5%
same,remaining activity at 10 µM,MKK7,96.3%
same,remaining activity at 10 µM,PHKg1,16.5%
same,remaining activity at 10 µM,STK38L/NDR2,36.9%
same,remaining activity at 10 µM,MLK1/MAP3K9,27.9%
same,remaining activity at 10 µM,CDK4/cyclin D1,33.5%
same,remaining activity at 10 µM,FAK/PTK2,52.5%
same,anti-proliferative activity of trastuzumab on co-treatment,SK-Br3 and HCC1954 cells,slightly enhanced
same,anti-proliferative activity of trastuzumab on co-treatment,SK-Br3 and HCC1954 cells; listed as Compound 53,slightly increased
same,remaining activity at 10 µM,BRK,46.6%
same,remaining activity at 10 µM,SBK1,94.5%
same,remaining activity at 10 µM,ZIPK/DAPK3,80.8%
same,remaining activity at 10 µM,LYN B,54.4%
same,remaining activity at 10 µM,CAMK4,95.2%
same,remaining activity at 10 µM,EPHA2,42.3%
same,remaining activity at 10 µM,DYRK1B,3.19%
same,remaining activity at 10 µM,IGF1R,58%
same,remaining activity at 10 µM,VRK2,96.6%
same,remaining activity at 10 µM,LKB1,0%
